Data on seven compounds can be found in PubChem BioAssay AID2060494 (Molecular Pharmacology Branch, DTP, NCI, 2025).

“And” between values parts separate entries of the source, which are not always exact repeats. Equal entries are not always repeated. A value given as a limit tells only on which side of the number the result lay.

The test system of the assay is 435261-313-R-J1-PDC complex spheroid viability. The assay is described as follows: Anticancer human tumor 435261-313-R-J1-PDC patient-derived colon adenocarcinoma cell line growth inhibition [GQUAD]. The settings on record: for viability, T/C: stronger effect = lower value. The text has this:
DNA G-quadruplex Stabilizer Agents in Combinations in Complex Spheroids
A high-throughput screen of multi-cell type tumor spheroids was designed to identify active combinations of DNA G-quadruplex stabilizer agents and targeted small molecules. Complex spheroids include a stromal component modeled by human endothelial cells (HUVEC) and fibroblasts modeled by human mesenchymal stem cells (MSCs). The concentration ranges selected for each drug and investigational agent were based upon clinically achievable concentrations if the clinical Cmax of the agent was known.
Compounds. The drugs and investigational agents: pidnarulex (CX-5461; NSC782164), APTO-253 (NSC789042), BRACO-19 (NSC847499), peposertib (NSC802822), ceralasertib (NSC780249), elimusertib (NSC800525), camonsertib (NSC841442), AZD-1390 (NSC803789), olaparib (NSC753686), talazoparib (NSC767125), ART-558 (NSC835418), sotorasib (NSC818433), MRTX-1133 (NSC836407), SN-38 (NSC673596), topotecan (NSC609699), etoposide (NSC141540), doxorubicin (NSC123127), gemcitabine (NSC613327), 5-fluorouracil (NSC19893), paclitaxel (NSC125973), vemurafenib (NSC761431), panobinostat (NSC761190), R-306465 (JNJ-16241199; NSC773264), adavosertib (NSC754352), TP-3654 (NSC805149), carboplatin (NSC241240), KSQ-4279 (NSC840948), and staurosporine (NSC755774) were obtained from the National Cancer Institute (NCI) Developmental Therapeutics Program Chemical Repository (34). The FDA-approved anticancer drug set is available from the NCI Developmental Therapeutics Program. […] The stock solutions were prepared in dimethyl sulfoxide (DMSO, Sigma-Aldrich, St. Louis, MO, cat. D2650) at 800-fold the tested concentration and stored at -70 degrees C prior to their use. All drugs and investigational agents were tested over a range starting from a high concentration at or near the clinical Cmax and decreasing in half-log increments. If the clinical Cmax for an agent had not been determined, the highest concentration tested was 10 microM.
2.3 Cell Culture. All cells were maintained in an incubator at 37 degrees C and 5% CO2 with 95% humidity. The PDC lines were cultured according to standard operating procedures established by the NCI PDMR. All PDCs were thawed and cultured in Matrigel-coated flasks prepared with a working solution of 1X Ham's F-12 nutrient mix, without supplementation (Invitrogen, cat. 11765054), 100 U/mL penicillin-streptomycin (Invitrogen, cat. 15140122), and 2.5% Matrigel (Corning Inc., cat. 354248) for the first three passages. The 857933-349-R-J2-PDC line was cultured in 6C/Colon 1B media, which includes advanced DMEM/F-12 (Thermo Fisher Scientific, cat. 12634028), 10 mM HEPES (Thermo Fisher Scientific, cat. 15630080), 1X GlutaMAX supplement (Thermo Fisher Scientific, cat. 35050061), 0.1 mg/mL primocin (InvivoGen, cat. ant-pm-2), 10% defined fetal bovine serum, heat inactivated (HyClone Laboratories Inc., cat. SH30070.03HI), 50% L-WRN conditioned media (ATCC, cat. CRL-3276), 1.25 mM N-Acetyl-L-cysteine (Sigma-Aldrich, cat. A9165), 10 mM nicotinamide (Sigma-Aldrich, cat. N0636), 1X B-27 supplement (Thermo Fisher Scientific, cat. 17504044), 1X N-2 supplement (Thermo Fisher Scientific, cat. 17502048), 10 microM Y-27632 dihydrochloride (Tocris Bioscience, cat. 1254), and 50 ng/mL human EGF recombinant protein (Thermo Fisher Scientific, cat. PHG0311). The 485176-168-R4-J1-PDC line was cultured in Panc media, which includes all 6C/Colon 1B media components plus 100 ng/mL human FGF-10 (Thermo Fisher Scientific, cat. 100-26), 500 nM SB-431542 (Selleckchem, cat. S1067), and gastrin (Tocris, cat. 3006).
[…]

The mark [1] stands for this setting: curve of first compound, second compound 0.0316 µM.
Where [2] appears, read: curve of first compound, second compound 0.1 µM.
Setting [3] is: curve of first compound, second compound 0.316 µM.
[4] abbreviates: curve of first compound, second compound 1 µM.
[5] abbreviates: curve of first compound, second compound 3.16 µM.
Where [6] appears, read: curve of first compound, second compound 10 µM.
[7] abbreviates: second compound 0.0316 µM, first compound 0.0316 µM.
Where [8] appears, read: second compound 0.0316 µM, first compound 0.1 µM.
The mark [9] stands for this setting: second compound 0.0316 µM, first compound 0.316 µM.
Setting [10] is: second compound 0.0316 µM, first compound 1 µM.
Setting [11] is: second compound 0.0316 µM, first compound 3.16 µM.
The mark [12] stands for this setting: second compound 0.0316 µM, first compound 10 µM.
Setting [13] is: second compound 0.1 µM, first compound 0.0316 µM.
The mark [14] stands for this setting: second compound 0.1 µM, first compound 0.1 µM.
The mark [15] stands for this setting: second compound 0.1 µM, first compound 0.316 µM.
Where [16] appears, read: second compound 0.1 µM, first compound 1 µM.
The mark [17] stands for this setting: second compound 0.1 µM, first compound 3.16 µM.
Setting [18] is: second compound 0.1 µM, first compound 10 µM.
[19] abbreviates: second compound 0.316 µM, first compound 0.0316 µM.
Setting [20] is: second compound 0.316 µM, first compound 0.1 µM.
Setting [21] is: second compound 0.316 µM, first compound 0.316 µM.
Where [22] appears, read: second compound 0.316 µM, first compound 1 µM.
Setting [23] is: second compound 0.316 µM, first compound 3.16 µM.
[24] abbreviates: second compound 0.316 µM, first compound 10 µM.
[25] abbreviates: second compound 1 µM, first compound 0.0316 µM.
[26] abbreviates: second compound 1 µM, first compound 0.1 µM.
The mark [27] stands for this setting: second compound 1 µM, first compound 0.316 µM.
Where [28] appears, read: second compound 1 µM, first compound 1 µM.
The mark [29] stands for this setting: second compound 1 µM, first compound 3.16 µM.
The mark [30] stands for this setting: second compound 1 µM, first compound 10 µM.
[31] abbreviates: second compound 3.16 µM, first compound 0.0316 µM.
[32] abbreviates: second compound 3.16 µM, first compound 0.1 µM.
[33] abbreviates: second compound 3.16 µM, first compound 0.316 µM.
[34] abbreviates: second compound 3.16 µM, first compound 1 µM.
[35] abbreviates: second compound 3.16 µM, first compound 3.16 µM.
Where [36] appears, read: second compound 3.16 µM, first compound 10 µM.
Setting [37] is: second compound 10 µM, first compound 0.0316 µM.
Where [38] appears, read: second compound 10 µM, first compound 0.1 µM.
[39] abbreviates: second compound 10 µM, first compound 0.316 µM.
Where [40] appears, read: second compound 10 µM, first compound 1 µM.
Where [41] appears, read: second compound 10 µM, first compound 3.16 µM.
Setting [42] is: second compound 10 µM, first compound 10 µM.
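Also: spheroids exposed to the agents for seven days before readout.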
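For viability, T/C in this document: percent of vehicle control viability with DMSO wells as 100%.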

The term IC50 denotes the concentration that inhibits the measured activity by half. A word on the viability, T/C: it is the ratio of treated to control. Take `C=CCn1c(=O)c2cnc(Nc3ccc(N4CCN(C)CC4)cc3)nc2n1-c1cccc(C(C)(C)O)n1` + Cc1cnc(CNC(=O)c2c(=O)c3ccc(N4CCCN(C)CC4)nc3n3c2sc2ccccc23)cn1: the IC50 is over 10000 nM under setting [1]; 266 nM under setting [2]; 2250 nM under setting [3]; under 31.6 nM under setting [4]; under 31.6 nM under setting [5]; under 31.6 nM under setting [6]. Moreover, the viability, T/C runs as follows: under setting [7], 67.6%; under setting [8], 59.2%; under setting [9], 59.4%; under setting [10], 57%; under setting [11], 52.7%; under setting [12], 51.3%. Moreover, the viability, T/C was 61.3% under setting [13]; 56.1% under setting [14]; 44.4% under setting [15]; 47.8% under setting [16]; 54.4% under setting [17]; 42.4% under setting [18]. The viability, T/C is 54% under setting [19]; 59.2% under setting [20]; 49.9% under setting [21]; 52.9% under setting [22]; 49.6% under setting [23]; 36.8% under setting [24]. The viability, T/C is, setting by setting: under setting [25], 34.9%; under setting [26], 39.6%; under setting [27], 36.2%; under setting [28], 39.1%; under setting [29], 41.2%; under setting [30], 30.5%. In addition, the viability, T/C under setting [31] was 14%; the viability, T/C under setting [32] is 4.69%; the viability, T/C under setting [33] is 8.48%; the viability, T/C under setting [34] was 4.99%; the viability, T/C under setting [35] is 5.92%; the viability, T/C under setting [36] was 0.17%. In addition, the viability, T/C is 0.17% under setting [37]; 0.17% under setting [38]; 0.19% under setting [39]; 0.16% under setting [40]; 0.19% under setting [41]; 0.15% under setting [42].

Regarding `O=C(NO)c1cnc(N2CCN(S(=O)(=O)c3ccc4ccccc4c3)CC2)nc1`, the viability, T/C (compound 0.0316 µM) is 97.4%; the viability, T/C (compound 0.1 µM) was 68.3%; the viability, T/C (compound 0.316 µM) is 52.4%; the viability, T/C (compound 1 µM) was 35.2%; the viability, T/C (compound 3.16 µM) is 0.38%; the viability, T/C (compound 10 µM) is 0.16%. In addition, the 50% inhibitory concentration (IC50) (curve of compound) is 318 nM.

In the case of `COc1ncnc(C2CC2)c1-c1ncc2cnn(Cc3ccc(-c4nc(C(F)(F)F)cn4C(C)C)cc3)c2n1` + CN(C)c1ccc(Nc2c3ccc(NC(=O)CCN4CCCC4)cc3nc3cc(NC(=O)CCN4CCCC4)ccc23)cc1, the concentration for half-maximal inhibition (IC50) by setting is: under setting [1], over 10000 nM; under setting [2], over 10000 nM; under setting [3], over 10000 nM; under setting [4], over 10000 nM; under setting [5], 3140 nM; under setting [6], under 31.6 nM. Moreover, the viability, T/C reads like this: under setting [7], 101%; under setting [8], 94.3%; under setting [9], 90%; under setting [10], 84.2%; under setting [11], 85.9%; under setting [12], 75.1%. Besides, the viability, T/C was 103% under setting [13]; 89.6% under setting [14]; 113% under setting [15]; 94% under setting [16]; 111% under setting [17]; 91.8% under setting [18]. For the same compound, the viability, T/C was 90.7% under setting [19]; 94% under setting [20]; 80.9% under setting [21]; 64% under setting [22]; 75.4% under setting [23]; 80.9% under setting [24]. The viability, T/C runs as follows: under setting [25], 82.6%; under setting [26], 70.8%; under setting [27], 76.4%; under setting [28], 69.8%; under setting [29], 78.6%; under setting [30], 77.6%. For the same compound, the viability, T/C under setting [31] was 50.5%; the viability, T/C under setting [32] is 74.3%; the viability, T/C under setting [33] was 69%; the viability, T/C under setting [34] is 41.2%; the viability, T/C under setting [35] was 56.9%; the viability, T/C under setting [36] was 30.2%. The viability, T/C was 31.4% under setting [37]; 33.6% under setting [38]; 28.8% under setting [39]; 27.9% under setting [40]; 32.9% under setting [41]; 10.7% under setting [42].

Consider `COc1ccc([C@@H](O)c2cc(-c3ncnc4cc(N5CCOCC5)ccc34)c(F)cc2Cl)nn1`, for which the viability, T/C reads like this: (compound 0.0316 µM) 105% and 99% and 90.9%; (compound 0.1 µM) 69.6% and 82.1% and 74.6%; (compound 0.316 µM) 81.5% and 103% and 90.2%; (compound 1 µM) 62.6% and 71.3% and 49.3%; (compound 3.16 µM) 38.6% and 47.8% and 37.7%; (compound 10 µM) 30.6% and 31.7% and 25.6%. The half-inhibitory concentration (IC50) (curve of compound) is 1930 nM and 2610 nM and 976 nM.

For the compound `O=C(c1cc(Cc2n[nH]c(=O)c3ccccc23)ccc1F)N1CCN(C(=O)C2CC2)CC1`, the viability, T/C is, setting by setting: (compound 0.0316 µM) 104% and 96%; (compound 0.1 µM) 101% and 90.4%; (compound 0.316 µM) 80.2% and 95.2%; (compound 1 µM) 98.7% and 88.8%; (compound 3.16 µM) 82.4% and 119%; (compound 10 µM) 71.2% and 80.3%. Moreover, the 50% inhibitory concentration (IC50) (curve of compound) is over 10000 nM.

On to `Cn1ncnc1[C@H]1c2n[nH]c(=O)c3cc(F)cc(c23)N[C@@H]1c1ccc(F)cc1`, for which the viability, T/C was 129% and 93.2% and 109% (compound 0.000999 µM); 91% and 87% and 106% (compound 0.00316 µM); 114% and 98% and 124% (compound 0.00999 µM); 71.5% and 116% and 74.2% (compound 0.0316 µM); 101% and 65.9% and 81.1% (compound 0.0999 µM); 81.1% and 72% and 81.4% (compound 0.316 µM). The IC50 (curve of compound) was over 316 nM.

Turning to `Cc1cccc(N(C)C(=O)C2C(O)CCN2c2nc(C)cc(C(F)(F)F)c2C#N)c1` (centres undefined), the viability, T/C is 102% and 105% and 116% (compound 0.0316 µM); 94.8% and 106% and 102% (compound 0.1 µM); 138% and 103% and 89.8% (compound 0.316 µM); 106% and 93.5% and 114% (compound 1 µM); 100% and 89.1% and 85.5% (compound 3.16 µM); 122% and 94.3% and 84% (compound 10 µM). Moreover, under “curve of compound”, the IC50 is over 10000 nM.
